The results in this text go back to patent US9107954B2, “Bivalent ligands for the treatment of neurological disorders” (Virginia Commonwealth University, priority 2012, dated 2015).

For series [1], the system named is R5-tropic HIV-1SF162 in primary human astrocytes. In words: HIV-1SF162 infectivity, Tat luciferase reporter assay in primary human astrocytes. Format: cell-based. The following applies: for effect on viral entry / Tat production, Example 4 / effect on virus invasion (Tat expression), Example 3: MVC 100 nM; for effect on viral entry / Tat production, Example 4: NTX 1.5 μM, 18 h; for effect on virus invasion (Tat expression), Example 3: NTX 1500 nM, naltrexone groups with and without morphine. The procedure: Primary human astrocytes (ScienCell catalog #1901) were cultured in 24-well plates and transfected with the plasmid pBlue3′LTR-luc (NIH AIDS Research and Reference Reagent Program) using Lipofectamine 2000 (Invitrogen) followed by infection with HIV-1. After 18-20 h cells were rinsed twice in 1×PBS then lysed in Cell Culture Lysis Reagent (Promega) and relative Tat protein expression was determined by measuring luciferase activity using the Luciferase Assay System (Promega; catalog # E1500). Light units were measured using a PHERAstar FS plate reader (BMG Labtech).
Primary human astroglial cells were infected by incubation with the neurotropic HIV-1 strain SF162. A concentration of HIV-1 p24 50 pg/10^6 cells was used, and a no virus condition served as a negative control. Viral stocks were quantified by assaying for HIV-1 p24 (Alliance p24 Antigen ELISA Kit; Advanced Bioscience, Kensington, Md.).
HIV-1SF162 infectivity of human astroglia was determined based on the relative amount of Tat protein expressed by the virus using a luciferase-based reporter assay. Reporters under the control of the long terminal repeat (LTR) viral promoter are a robust means of measuring HIV-1 infection, since the LTR is activated by HIV-1 Tat, which is only expressed by infected cells.
As the bivalent ligand 1 has been designed as a molecular probe to study the underlying mechanisms of opioid-enhanced NeuroAIDS by targeting the MOR-CCR5 heterodimerization, a luciferase-based HIV-1SF162) infection assay measuring the relative transactivator of transcription (Tat) protein expression in human astrocytes was performed (FIG. 15). Tat is encoded by HIV-1 and is the first protein to be produced after HIV-1 infection. Thus, Tat expression level is directly proportioned to the extent of HIV-1 invasion. Astrocytes were chosen based on the following facts: first, astrocytes express both the MOR and the CCR5. Second, the human blood-brain barrier (BBB) is composed of interacting adjacent cerebral endothelial cells (CECs) and astrocytes, which makes astrocytes a readily accessible target during the course of HIV infection. Thirdly, during NeuroAIDS development astroglia are important cellular sites within the CNS where opioids synergistically potentiate the pathophysiological effects of HIV-1 infection.

Series [2] addresses CCR5 (Homo sapiens (Human), UniProt P51681). In words: Calcium mobilization assay, CCR5-MOR CHO co-expressed cell line (Gqi5), RANTES-stimulated. Type of series: cell-based. The method, then: (§1) Having a cell line that consistently expresses both CCR5 and MOR was essential for studying how the two receptors interact with each other using calcium mobilization assays and cell fusion assays. A previously established MOR Chinese hamster ovarian (CHO) cell line was transfected with a plasmid containing CCR5 tagged with a yellow fluorescent protein on its N-terminus (CCR5-YFP). ^1 After 48 hours cells were sorted based upon the presence of the yellow fluorescent protein tag using a flow cytometer. Cells containing the tagged receptors were then cultured and used in the subsequent assays.
(§2) Calcium mobilization is directly related to G protein-coupled receptor (GPCR) activation and therefore is a useful technique to study the functional activity of new ligands.
(In general: Calcium assays in cells follow changes in intracellular calcium, usually with a dye or a luminescent sensor.)

Series [3] has as its system fusion of CCR5-MOR CHO target cells (CD4) with HEK effector cells (HIV-1 gp140). Format: cell-based. To be noted: for effect on cell fusion: 1 at 3000 nM, 2 at 10000 nM, maraviroc at 100 nM.
In series [4] the target is T1, MOR (Homo sapiens (Human), UniProt P35372). In words: DAMGO-stimulated Ca2+ flux assay in hMOR-CHO cells transfected with Gqi5. Type of series: cell-based.
For series [5], the target named is mu opioid receptor (MOR) (Homo sapiens (Human), UniProt P35372). Briefly: MOR competitive radioligand binding, [3H]naloxone, hMOR-expressed CHO cells. The method, then:
MOR/CHO cell culture and membrane homogenate preparation followed literature report^52.
Saturation binding was performed by incubating membranes for 90 minutes at 30° C. with 0.5-15 nM [^3H]naloxone in assay buffer in a 0.5 mL volume. […] The reaction was terminated by rapid filtration through Whatman GF/B glass fiber filters, followed by 3 washes with 3 mL ice-cold Tris buffer. Bound radioactivity will be determined by liquid scintillation spectrophotometry at 45% efficiency for [^3H].
For competition binding assay (agonists or antagonists), Hill plots linear regression analysis and the Cheng-Prusoff equation were applied to determine the IC50 and Ki values. In [^35S]GTPγS binding assays, agonist concentration effect curves were fit by non-linear regression to obtain Emax and EC50 values; antagonist inhibition of agonist-stimulated [^35S]GTPγS binding was analyzed by Hill analysis and AD50 values were corrected to Ki values using the Cheng-Prusoff equation. All analyses were using Prism 4.0.
Herein is reported the characterization of this novel molecular probe in for its binding affinity, Ca^2+ flux functional activity, and HIV-1 inhibition potency.

For series [6], the target named is T1, MOR. Briefly: Calcium mobilization assay, CCR5-MOR CHO co-expressed cell line (Gqi5), DAMGO-stimulated. Format: cell-based. To be noted: cells stimulated with DAMGO; read-out: MOR IC50. The method, then: as §1, §2
Series [7] has as its system human astrocytes. In words: Cytotoxicity assay, AOPI live/dead labeling of human astrocytes. Format: cell-based. The procedure: Cell viability was assessed by measurement of both live and dead cells using dual (green/red) fluorescence labeling with AOPI analyzed with Cellometer Vision CBA (Nexcelom Bioscience LLC).
To determine whether HIV-1±morphine exposure affected astrocyte viability in the presence or absence of MVC or the bivalent compound, a cell death assay was performed at 24 h after treatment.

The subject of series [8] is CCR5. In words: Flow cytometry of CCR5 immunofluorescence in HIV-1 infected primary human astrocytes. To be noted: vs uninfected. Format: cell-based. The procedure: MOR and CCR5 immunoreactivity were detected by direct immunofluorescence in astroglial cells by flow cytometric analysis. Cells were washed in phosphate-buffered saline (PBS)-0.1% bovine serum albumin (BSA) buffer and incubated with primary MOR antibody followed by a secondary antibody conjugated to allophycocyanin (APC) (Biolegend, Inc; catalog #408001) and Alexa Fluor® 488 conjugated anti-mouse CD195 (CCR5) antibody (Biolegend, Inc; catalog #107008) in permeabilization buffer (PBS-0.1% BSA-0.1% Triton X-100) at a 1:500 dilution. Fluorescence was measured from 10,000 gated cells per treatment in each experiment using a FACSCanto II flow cytometer (BD Biosciences, San Jose, Calif.). Auto-fluorescence was compensated by setting the detector voltage to the minimum level that discriminates between auto-fluorescence and specific immunofluorescence in both negative and positive controls. Isotype control antibodies were used to define settings in histogram plot analyses.
We quantitatively analyzed the effect of MVC and the bivalent compound on CCR5 and MOR expression levels in virally infected astrocytes by flow cytometry. […] Approximately 20,000 events were analyzed per treatment condition in each experiment and size discrimination was used as a crude method for viability determination.
In general terms: Flow cytometry measures light scatter and fluorescence of single cells or particles in a stream.

Molecules are shown by their SMILES. Read-outs that look alike come from different tables or passages of the source.

Sequence of CCR5 (Homo sapiens (Human), UniProt P51681) (P51681 whole entry, the tested form may be a part): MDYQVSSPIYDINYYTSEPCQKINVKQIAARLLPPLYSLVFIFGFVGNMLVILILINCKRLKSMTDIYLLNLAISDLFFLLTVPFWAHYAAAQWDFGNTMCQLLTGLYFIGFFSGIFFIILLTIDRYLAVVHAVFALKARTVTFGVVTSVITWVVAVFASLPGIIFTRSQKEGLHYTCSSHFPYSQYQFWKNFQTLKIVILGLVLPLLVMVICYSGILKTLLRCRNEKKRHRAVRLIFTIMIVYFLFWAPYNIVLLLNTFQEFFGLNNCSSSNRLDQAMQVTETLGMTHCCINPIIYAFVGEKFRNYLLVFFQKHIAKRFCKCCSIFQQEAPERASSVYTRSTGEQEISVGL

On to `O=C1CC[C@@]2(O)[C@H]3Cc4ccc(O)c5c4[C@@]2(CCN3CC2CC2)[C@H]1O5` [Naltrexone, reference compound], for which, in series [1], the “effect on viral entry / Tat production, Example 4” value is on record as “did not show significant effect” and the “effect on virus invasion (Tat expression), Example 3” value is on record as “no effect on virus invasion”.

As usually defined, the IC50 is the concentration that gives 50% inhibition. By Ki is commonly meant a dissociation constant, usually derived from enzyme kinetics or from competition with a known ligand. For the molecule `Cc1nnc(C(C)C)n1C1CC2CCC(C1)N2CC[C@H](NC(=O)C1CCC(F)(F)CC1)c1cccc(NC(=O)COCC(=O)NCCCCCCCNC(=O)COCC(=O)N[C@@H]2CC[C@@]3(O)[C@H]4Cc5ccc(O)c6c5[C@@]3(CCN4CC3CC3)[C@H]2O6)c1` (stereo partly shown) [compound 2], the “fold loss in CCR5 antagonist activity compared to maraviroc” value in series [2] was determined as 800 fold. In addition, the IC50 turned out to be 14000 ± 345 nM in series [2] (cells stimulated with RANTES); 37.8 ± 4.4 nM in [4] (DAMGO stimulated, hMOR-CHO Gqi5, read-out: Ca2+ inhibition IC50 ± SEM); 17.4 ± 5.74 nM in [6]. Moreover, the “effect on cell fusion” value in [3] is “significantly lowered cell fusion”. For the same molecule, in [3] (morphine 300 nM), the “amplification of cell fusion inhibition when morphine present” value was found to be 2 fold. In series [4] (hMOR-CHO Gqi5, data not shown), the “agonism in Ca2+ mobilization assay” value is on record as “No agonism”. Further, the inhibition constant (Ki) was 9.18 ± 3.44 nM in series [5] (Example 1, read-out: binding affinity to the mu opioid receptor, Ki) and 9.2 ± 3.4 nM in series [5] (mean of three experiments, read-out: Radioligand binding Ki ± SEM).

A word on the melting point: it is the temperature, or range, at which the solid turns liquid. On to `Cc1nnc(C(C)C)n1C1CC2CCC(C1)N2CCC(NC(=O)C1CCC(F)(F)CC1)c1ccc(N)cc1` (stereo not shown), for which the melting point was 109 to 110 °C.

`Cc1nnc(C(C)C)n1C1C[C@H]2CC[C@@H](C1)N2CC[C@H](NC(=O)C1CCC(F)(F)CC1)c1ccccc1` (stereo in doubt) [Maraviroc, reference compound]: the “effect on cell fusion” value in [3] is “significantly lowered cell fusion”. Also, the “amplification of cell fusion inhibition when morphine present” value in series [3] (morphine 300 nM) is recorded as “not amplified”. Further, in series [7] (100 nM, HIV-1 ± morphine, 24 h), the astrocyte viability entry was “not significantly different”. In addition, in [7] (Example 3), the “toxicity in the astrocytes, cytotoxicity assays (not shown)” value is recorded as “neither maraviroc nor 1 had any toxicity”. In series [7] (concentration higher than 100 nM), the “toxicity to the cells at higher concentration” value is recorded as “increased toxicity to the cells”. In series [1], the “effect on viral entry / Tat production, Example 4” value is given as “considerably inhibited viral entry” and the “effect on virus invasion (Tat expression), Example 3” value was “virus invasion is decreased”.

Take `CN1CC[C@]23c4c5ccc(O)c4O[C@H]2[C@@H](O)C=C[C@H]3[C@H]1C5` [morphine, reference compound]: the “effect of morphine on cell fusion” value in series [3] (morphine 300 nM, +CD4, vs +CD4 alone) is “significant increase”. For the same molecule, the “fold increase in Tat expression after infection with R5 in combination with morphine” value in [1] (morphine 500 nM, vs uninfected) is reported as approximately 2.7 fold. The “fold increase in CCR5 expression levels, HIV-1R5 in combination with morphine” value in series [8] is listed as 3.3 fold.
